Assay results published in ChEMBL document CHEMBL5584354, “Impact of Conjugation of the Reactive Oxygen Species (ROS)-Generating Catalytic Moiety with Membrane-Active Antimicrobial Peptoids: Promoting Multitarget Mechanism and Enhancing Selectivity” (J Med Chem, 2024).
Values after ≈ are worked out from the molar mass of the structure shown. Active and inactive are the calls of the source. The calls are words filed in the database; no cut-off is given here. Non-standard residues stand in square brackets, D forms with d. Residues, ends and D or L forms follow the SMILES beside them. Gly(N(CH2)2(3-indolyl)) = O=C(O)CNCCc1c[nH]c2ccccc12; Nspe = C[C@H](NCC(=O)O)c1ccccc1; Nlys = NCCCCNCC(=O)O

Experiments:
HEK-Blue hTLR7 = test: Inhibition of TLR4-mediated inflammatory signaling in LPS-stimulated HEK-Blue […] cells assessed as reduction in SEAP activity at 10 uM preincubated for 1 hr followed by LPS stimulation and measured after 16 hrs by ELISA relative to control; format: cell-based; details: Homo sapiens, time 17.0 hrs
HEK293 = test: Cytotoxicity against HEK293 cells assessed as cell killing incubated for 24 hrs by MTS assay; format: toxicity, cell-based; details: human, hek293, 24 h
Escherichia coli [1] = test: (§1) Antibacterial activity against Escherichia coli K1 infected in female ICR mouse model of septic shock assessed as reduction in AST level in serum at 5 mg/kg, ip pretreated for 1 hr followed by bacteria addition and further treated with 3 doses of compound every 4 hrs relative to control; format: functional; set-up: scale not given: the % may be the effect or the level left; details: time 9 hrs
Escherichia coli [2] = test: as §1, with “increase” for “reduction”, “animal survival” for “AST level in serum”, “and measured every hour for 36 hrs and every 6 hrs for 96 hrs” for “relative to control”; format: functional
Staphylococcus aureus = test: Antibacterial activity against Staphylococcus aureus ATCC 25923 assessed as inhibition of bacterial growth incubated for 24 hrs by broth dilution method; format: functional
[3] = Hemolytic activity in male Sprague-Dawley rat erythrocytes assessed as concentration required for 50% hemolysis incubated for 1 hr by absorbance based method; format: toxicity, cell-based, Erythrocyte
Escherichia coli [4] = test: (§2) Antibacterial activity against Escherichia coli K1 infected in female ICR mouse model of septic shock assessed as reduction in endotoxin level at 5 mg/kg, ip pretreated for 1 hr followed by bacteria addition and further treated with 3 doses of compound every 4 hrs relative to control; format: functional; set-up: scale not given: the % may be the effect or the level left; details: time 9 hrs
DNA = test: Binding affinity to pUC19 plasmid DNA (unknown origin) assessed as smearing and retardation of DNA bands at 25 uM incubated for 2 hrs by agarose gel imaging method; format: nucleic-acid assay
[5] = Hemolytic activity in male Sprague-Dawley rat erythrocytes at 25 uM incubated for 1 hr by absorbance based method relative to control; format: toxicity, cell-based, Erythrocyte; details: read-out: Activity
Escherichia coli [6] = test: Antibacterial activity against Escherichia coli K1 infected in female ICR mouse model of septic shock assessed as reduction in BUN level in serum at 5 mg/kg, ip pretreated for 1 hr followed by bacteria addition and further treated with 3 doses of compound every 4 hrs relative to control; format: functional; set-up: scale not given: the % may be the effect or the level left; details: time 9 hrs
[7] = Acute toxicity in female ICR mouse assessed as animal survival at 5 mg/kg, ip administered four doses for 12 hrs; format: organism-based; details: in vivo
Streptococcus pneumoniae [8] = test: Antibacterial activity against catalase-negative Streptococcus pneumoniae KCMM42691 assessed as inhibition of bacterial growth incubated for 24 hrs by broth dilution method; format: functional
L929 = test: Cytotoxicity against mouse L929 cells assessed as reduction in cell viability at 3.1 to 25 uM incubated for 24 hrs by WST-8 assay; format: toxicity, cell-based; details: l929, 24 h, dose 3.1-25 µM
RAW264.7 = test: Antiinflammatory activity in LPS-stimulated mouse RAW264.7 cells assessed as reduction in TNFalpha production at 10 uM incubated for 16 hrs by ELISA relative to control; format: functional; set-up: scale not given: the % may be the effect or the level left
Erythrocyte = test: Hemolytic activity in male Sprague-Dawley rat erythrocytes assessed as concentration required for 10% hemolysis incubated for 1 hr by absorbance based method; format: toxicity, cell-based
[9] = Cytotoxicity against mouse RAW264.7 cells assessed as cell viability at 20 uM incubated for 24 hrs by […] relative to control; format: toxicity, cell-based; details: read-out: Activity
[10] = Hemolytic activity in male Sprague-Dawley rat erythrocytes at 100 uM incubated for 1 hr by absorbance based method relative to control; format: toxicity, cell-based, Erythrocyte; details: read-out: Activity
Streptococcus pneumoniae [11] = test: Antibacterial activity against catalase-negative Streptococcus pneumoniae KCMM42691 assessed as cell killing at 12.5 uM incubated for 4 to 16 hrs by CFU assay; format: functional, organism-based; details: time 4-16 hrs
[12] = Toxicity in female ICR mouse assessed as lymphocyte infiltration in kidney at 5 mg/kg, ip administered four doses for 12 hrs and measured 24 hrs post last dose by H and E staining based light microscopic analysis; format: organism-based; details: in vivo, 36 h
Cell membrane [13] = test: Disruption of outer membrane in Escherichia coli ATCC 25922 assessed as increase in absorbance measured every 5 mins for 90 mins by nitrocefin assay; format: cell membranes; details: dose 0-25 µM
[14] = Toxicity in female ICR mouse infected with Escherichia coli K1 assessed as lung injury at 5 mg/kg, ip pretreated for 1 hr followed by bacteria addition and further treated with 3 doses of compound every 4 hrs; format: organism-based; details: in vivo, 9 h
Escherichia coli [15] = test: as §1, with “TNFalpha” for “AST”, “hrs by ELISA” for “hrs”; format: functional; set-up: scale not given: the % may be the effect or the level left; details: time 9 hrs
Escherichia coli [16] = test: Induction of lipid peroxidation in Escherichia coli ATCC 25922 assessed as increase in green fluorescence at 12.5 uM incubated for 1 hrs by BODIPY 581/591 C11 dye based confocal microscopic analysis; format: functional, organism-based
Cell membrane [17] = test: Disruption of inner membrane in Escherichia coli ATCC 25922 assessed as increase in absorbance incubated for 1 hr by ONPG assay; format: cell membranes; details: dose 0-25 µM
Escherichia coli [18] = test: Antibacterial activity against Escherichia coli K1 infected in female ICR mouse model of septic shock assessed as reduction in ALT level in serum at 5 mg/kg, ip pretreated for 1 hr followed by bacteria addition and further treated with 3 doses of compound every 4 hrs relative to control; format: functional; set-up: scale not given: the % may be the effect or the level left; details: time 9 hrs
[19] = Hemolytic activity in male Sprague-Dawley rat erythrocytes at 50 uM incubated for 1 hr by absorbance based method relative to control; format: toxicity, cell-based, Erythrocyte; details: read-out: Activity
Escherichia coli [20] = test: as §2, with “pulmonary congestion in lung” for “endotoxin level”, “by H and E staining based light microscopic analysis” for “relative to control”; format: functional, organism-based; details: time 9.0 hrs

C[C@@H](c1ccccc1)N(CC(=O)N(CCCCN)CC(=O)N(CCc1c[nH]c2ccccc12)CC(=O)N(CCc1c[nH]c2ccccc12)CC(N)=O)C(=O)CN(CCCCN)C(=O)CN(CCCCN)C(=O)CN(C(=O)CN(C(=O)CN(CCCCN)C(=O)CN(C(=O)CN(C(=O)CN(CCCCN)C(=O)[C@H](Cc1c[nH]cn1)NC(=O)CNC(=O)CN)[C@@H](C)c1ccccc1)[C@@H](C)c1ccccc1)[C@@H](C)c1ccccc1)[C@@H](C)c1ccccc1 (H-GGH[Nlys][Nspe][Nspe][Nlys][Nspe][Nspe][Nlys][Nlys][Nspe][Nlys][Gly(N(CH2)2(3-indolyl))][Gly(N(CH2)2(3-indolyl))]-NH2)
inhibition (HEK-Blue hTLR7): 49.7% | LC50 (HEK293): 39.5 µM | Activity (Escherichia coli [1]): 32.7% | survival at 5 mg/kg (Escherichia coli [2]): 60% | MIC (Staphylococcus aureus): 12.5 µM (≈ 26.4 µg/mL) | HC50 at 1 h [3]: > 100 µM | Activity (Escherichia coli [4]): 44.3% | Activity (DNA): Active | hemolysis at 1 h, 25 µM [5]: 3.13% | Activity (Escherichia coli [6]): 40.3% | Survival [7]: > 96 h | MBC (Streptococcus pneumoniae [8]): 12.5 µM (≈ 26.4 µg/mL) | MIC (Streptococcus pneumoniae [8]): 6.3 µM (≈ 13.3 µg/mL) | Activity (L929): Non-Toxic | Activity (RAW264.7): 32.5% | HC10 (Erythrocyte): > 100 µM | viability at 24 h, 20 µM [9]: 74.1% | hemolysis at 1 h, 100 µM [10]: 5.57% | Activity (Streptococcus pneumoniae [11]): Active | Activity [12]: Non-Toxic | Activity (Cell membrane [13]): Dose-Dependent Effect | Activity [14]: Non-Toxic | Activity (Escherichia coli [15]): 46.6% | Activity (Escherichia coli [16]): Active | Activity (Cell membrane [17]): Dose-Dependent Effect | Activity (Escherichia coli [18]): 51.1% | hemolysis at 1 h, 50 µM [19]: 4.83% | Activity (Escherichia coli [20]): Active
